Measurements as given in ChEMBL document CHEMBL5316338, “Discovery of Novel PTP1B Inhibitors with Once-Weekly Therapeutic Potential for Type 2 Diabetes: Design, Synthesis, and In Vitro and In Vivo Investigations of BimBH3 Peptide Analogues” (J Med Chem, 2023).
Activity calls are given as the source filed them. The rule behind the calls is not given here. Square brackets hold non-standard residues; d marks the D form. Peptide text beside a SMILES is read from it. * marks the point of attachment. ξ: configuration not given here. C18 diacid = O=C(O)CCCCCCCCCCCCCCCCC(=O)*; Myristoyl = CCCCCCCCCCCCCC(=O)*; ξR = N=C(N)NCCCC(N)C(=O)O

Tests used:
[1] = biological target: T1, Tyrosine-protein phosphatase non-receptor type 1 (Homo sapiens) (UniProt P18031); assay: Inhibition of N-terminal His tagged recombinant human PTP1B expressed in Escherichia coli using pNPP as substrate assessed as substrate hydrolysis at 40 umol/L relative to control; settings: dose 40.0 µmol/L
T1 sequence (whole entry): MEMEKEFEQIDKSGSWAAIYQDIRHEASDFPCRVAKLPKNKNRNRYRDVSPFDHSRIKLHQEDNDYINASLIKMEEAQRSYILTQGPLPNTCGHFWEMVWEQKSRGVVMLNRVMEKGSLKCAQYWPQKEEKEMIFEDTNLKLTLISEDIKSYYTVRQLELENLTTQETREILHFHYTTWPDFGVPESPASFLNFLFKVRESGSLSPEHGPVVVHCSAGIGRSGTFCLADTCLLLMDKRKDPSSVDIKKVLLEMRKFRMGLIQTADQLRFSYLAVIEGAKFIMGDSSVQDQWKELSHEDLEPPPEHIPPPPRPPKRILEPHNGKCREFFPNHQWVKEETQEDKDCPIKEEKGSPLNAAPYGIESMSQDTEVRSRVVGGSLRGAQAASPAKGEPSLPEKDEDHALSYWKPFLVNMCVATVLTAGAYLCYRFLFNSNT

[2] = biological target: T2, Tyrosine-protein phosphatase non-receptor type 2 (Homo sapiens, UniProt P17706); assay: Inhibition of recombinant human TC-PTP (1 to 314 residues) expressed in baculovirus infected insect cells using pNPP as substrate assessed as substrate hydrolysis; set-up: species or system Insect cell
T2 sequence (P17706 whole entry): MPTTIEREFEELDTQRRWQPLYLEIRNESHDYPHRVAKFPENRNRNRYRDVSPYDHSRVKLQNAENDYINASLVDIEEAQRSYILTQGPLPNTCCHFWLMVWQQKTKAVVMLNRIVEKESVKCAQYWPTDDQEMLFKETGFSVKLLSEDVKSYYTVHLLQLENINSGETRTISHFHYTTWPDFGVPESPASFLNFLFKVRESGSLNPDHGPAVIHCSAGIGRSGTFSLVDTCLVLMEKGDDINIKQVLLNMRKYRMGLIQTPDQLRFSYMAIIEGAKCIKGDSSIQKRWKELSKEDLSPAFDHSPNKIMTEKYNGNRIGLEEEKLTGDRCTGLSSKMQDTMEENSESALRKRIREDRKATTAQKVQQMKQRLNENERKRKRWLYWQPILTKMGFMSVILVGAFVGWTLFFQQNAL

Proteinase K = assay: Stability of compound assessed as Proteinase K (unknown origin) mediated compound degradation by measuring half-life by HPLC analysis; type: ADME
Pepsin = assay: Stability of compound assessed as Pepsin (unknown origin) mediated compound degradation by measuring half-life by HPLC analysis; type: ADME; settings: human
chymotrypsin [3] = biological target: chymotrypsin (Homo sapiens, UniProt P17538+P40313+Q6GPI1+Q99895); assay: Stability of compound assessed as chymotrypsin (unknown origin) mediated compound degradation by measuring half-life by RP-HPLC analysis; type: ADME, protein assay
carboxypeptidase A = biological target: T3, carboxypeptidase A (Homo sapiens, UniProt P15085); assay: Stability of compound assessed as carboxypeptidase A (unknown origin) mediated compound degradation by measuring half-life by RP-HPLC analysis; type: ADME
T3 sequence (P15085 whole entry): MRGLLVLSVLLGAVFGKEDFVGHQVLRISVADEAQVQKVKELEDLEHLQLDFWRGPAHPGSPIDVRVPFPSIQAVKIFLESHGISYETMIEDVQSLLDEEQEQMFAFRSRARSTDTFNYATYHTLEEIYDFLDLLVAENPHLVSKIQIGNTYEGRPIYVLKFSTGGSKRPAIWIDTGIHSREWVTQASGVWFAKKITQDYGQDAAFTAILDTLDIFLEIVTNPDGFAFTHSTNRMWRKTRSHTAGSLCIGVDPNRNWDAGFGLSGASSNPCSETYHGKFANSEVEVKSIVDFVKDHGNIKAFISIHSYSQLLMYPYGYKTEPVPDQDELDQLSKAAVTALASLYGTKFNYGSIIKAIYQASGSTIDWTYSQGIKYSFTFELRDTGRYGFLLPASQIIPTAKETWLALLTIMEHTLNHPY

Mus musculus [4] = assay: Antidiabetic activity against C57BL/Ks db/db mouse assessed as reduction in fasting blood glucose level at 1 uM/kg, sc administered once every 2 days for 2 weeks by glucometer analysis; type: functional, organism-based
Chymotrypsin [5] = biological target: Chymotrypsin (Homo sapiens, UniProt Q99895+P17538+P40313+Q6GPI1); assay: Stability of compound assessed as chymotrypsin (unknown origin) mediated compound degradation by measuring fold change of half-life by RP-HPLC analysis relative to BimBH312-mer peptide; type: ADME, protein assay
[6] = Toxicity in C57BL/Ks db/db mouse assessed as signs of discomfort at 1 uM/kg, sc administered for 2 weeks; type: organism-based; settings: in vivo, 336 h
Mus musculus [7] = assay: Antidiabetic activity against C57BL/Ks db/db mouse assessed as redcution in fasting blood glucose level at 1 umol/kg, sc administered once a week and measured on day 8 by glucometer analysis (reference value: 27.7 +/- 3.7 […]); type: functional; settings: dose 1 µmol/kg, time 8 day
Mus musculus [8] = assay: Antidiabetic activity against C57BL/Ks db/db mouse assessed as redcution in fasting blood glucose level at 1 umol/kg, sc administered once a week and measured on day 15 by glucometer analysis (reference value: 27.3 +/- 2.4 […]); type: functional; settings: dose 1 µmol/kg, time 15 day
Mus musculus [9] = assay: Antidiabetic activity against C57BL/Ks db/db mouse assessed as redcution in fasting blood glucose level at 1 umol/kg, sc administered once a week and measured on day 22 by glucometer analysis (reference value: 27.4 +/- 1.8 […]); type: functional; settings: dose 1 µmol/kg, time 22 day
Mus musculus [10] = assay: Antidiabetic activity against C57BL/Ks db/db mouse assessed as redcution in fasting blood glucose level at 1 umol/kg, sc administered once a week and measured on day 24 by glucometer analysis (reference value: 30.2 +/- 3.2 […]); type: functional; settings: dose 1 µmol/kg, time 24 day
Mus musculus [11] = assay: Antidiabetic activity against C57BL/Ks db/db mouse assessed as redcution in fasting blood glucose level at 1 umol/kg, sc administered once a week and measured on day 26 by glucometer analysis (reference value: 31.4 +/- 2.2 […]); type: functional; settings: dose 1 µmol/kg, time 26 day
Mus musculus [12] = assay: Antidiabetic activity against C57BL/Ks db/db mouse assessed as redcution in fasting blood glucose level at 1 umol/kg, sc administered once a week and measured on day 28 by glucometer analysis (reference value: 32.4 +/- 1.1 […]); type: functional; settings: dose 1 µmol/kg, time 28 day
Mus musculus [13] = assay: Antidiabetic activity against over-night fasted C57BL/ks db/db mouse assessed as suppression of increased blood glucose concentration at 1 uM/kg, sc pretreated with compound for 4 weeks followed by insulin stimulation and measured for 90 mins by insulin tolerance test; type: functional, organism-based; settings: time 40410.0 min
Mus musculus [14] = assay: Antidiabetic activity against sc dosed C57BL/Ks db/db mouse assessed as reduction in serum insulin level at 1 umol/kg by ELISA analysis; type: functional, organism-based; settings: dose 1.0 µmol/kg
Mus musculus [15] = assay: Antidiabetic activity against sc dosed C57BL/Ks db/db mouse assessed as reduction in C-peptide level at 1 umol/kg by ELISA analysis; type: functional, organism-based; settings: dose 1.0 µmol/kg

For `CCCCCCCCCCCCCC(=O)N[C@H](C(=O)N[C@@H](C)C(=O)N[C@@H](CCC(N)=O)C(=O)N[C@@H](CCC(=O)O)C(=O)N[C@@H](CC(C)C)C(=O)N[C@@H](CCCNC(=N)N)C(=O)NC(CCCNC(=N)N)C(=O)N[C@H](C(=O)NCC(=O)N[C@@H](CC(=O)O)C(=O)N[C@@H](CCC(=O)O)C(=O)N[C@@H](Cc1ccccc1)C(=O)O)[C@@H](C)CC)[C@@H](C)CC` (stereo partly specified) (Myristoyl-IAQELR[ξR]IGDEF-OH), the inhibition [1] was greater than 50%, the IC50 [2] was greater than 50 µM and the half-life (Proteinase K) was 17.4 min. It also gave a half-life (Pepsin) of 39 min, a half-life (chymotrypsin [3]) of 178 min and a half-life (carboxypeptidase A) of 61.2 min. For the same compound, the Activity (Mus musculus [4]) was “Active”, the “fold change (FC)” value (Chymotrypsin [5]) was 68.8 and the Activity [6] was “Non-Toxic”. For the same compound, the “Fasting blood glucose level” value (Mus musculus [7]) was 10.3 mmol/L, the Fasting blood glucose (Mus musculus [8]) was 8.3 mmol/L and the “Fasting blood glucose level” value (Mus musculus [9]) was 11.2 mmol/L. The “Fasting blood glucose level” value (Mus musculus [10]) was 14.2 mmol/L, the “Fasting blood glucose level” value (Mus musculus [11]) was 12.9 mmol/L and the “Fasting blood glucose level” value (Mus musculus [12]) was 15.6 mmol/L. The Activity (Mus musculus [13]) was “Active”, the Activity (Mus musculus [14]) was “Active” and the Activity (Mus musculus [15]) was “Active”.

Work on `CC[C@H](C)[C@H](NC(=O)CCCCCCCCCCCCCCCCC(=O)O)C(=O)N[C@@H](C)C(=O)N[C@@H](CCC(N)=O)C(=O)N[C@@H](CCC(=O)O)C(=O)N[C@@H](CC(C)C)C(=O)N[C@@H](CCCNC(=N)N)C(=O)NC(CCCNC(=N)N)C(=O)N[C@H](C(=O)NCC(=O)N[C@@H](CC(=O)O)C(=O)N[C@@H](CCC(=O)O)C(=O)N[C@@H](Cc1ccccc1)C(=O)O)[C@@H](C)CC` (stereo partly specified) ({C18 diacid}-IAQELR[ξR]IGDEF-OH) yielded an inhibition [1] greater than 50%, an IC50 [2] greater than 50 µM and a half-life (Proteinase K) of 7.8 min. It also gave a half-life (Pepsin) of 406 min, a half-life (chymotrypsin [3]) of 12 min and a half-life (carboxypeptidase A) of 271 min. The Activity (Mus musculus [4]) was “Active”, the “fold change (FC)” value (Chymotrypsin [5]) was 4.7 and the Activity [6] was “Non-Toxic”. The “Fasting blood glucose level” value (Mus musculus [7]) was 11.1 mmol/L, the Fasting blood glucose (Mus musculus [8]) was 8.7 mmol/L and the “Fasting blood glucose level” value (Mus musculus [9]) was 9.9 mmol/L. The “Fasting blood glucose level” value (Mus musculus [10]) was 14.3 mmol/L, the “Fasting blood glucose level” value (Mus musculus [11]) was 22.9 mmol/L and the “Fasting blood glucose level” value (Mus musculus [12]) was 18.4 mmol/L. For the same compound, the Activity (Mus musculus [13]) was “Active”, the Activity (Mus musculus [14]) was “Active” and the Activity (Mus musculus [15]) was “Active”.
